Assay results taken from US8778966B2, “Quinolinone derivatives as PARP and tank inhibitors” (Janssen Pharmaceutica, NV, priority 2007, dated 2014).
Where two headings read alike, the source gives them in different places.

How the values were obtained:
PC-3 cells = test: Antiproliferative activity, Alamar Blue assay, PC-3 cells; type: cell-based, human; conditions: Homo sapiens, PC-3, PC3 cells, read-out: PC3 antiproliferative activity pIC50 (converted)
Procedure, shortened: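 PC-3 cells seeded at 4.5×10^3 cells/ml, left to adhere 24 hr, then exposed to compound for 4 days. Resazurin (Alamar Blue) added for a further 24 hrs at 37° C; fluorescence read at 540/590 nm. Viability as % of untreated control, mean of 3 wells; IC50 by probit analysis, reported as pIC50.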

tubulin = test: Tubulin polymerization assay; type: biochemical; set-up: key: a compound showing 0 to 50% inhibition at 20 μM is reported as score 1; Score 2 compounds are defined as compound showing more than 50% inhibition at 20 μM and less than 50% inhibition at 5 μM; a compound showing more than 50% inhibition at 5 μM is reported as score 3; conditions: tested at 20 μM and 5 μM
Procedure, shortened: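 Cytoskeleton kit tubulin was run in a 10 µl final volume at 37 °C, with fluorescence read every minute for 1 h. Polymerization was taken as the maximum slope (4-point linear regression) and expressed as % of no-compound control. Compounds were tested at 20 µM, then at 5 µM if inhibition exceeded 50%, and scored by % inhibition.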

Structure (SMILES)	melting point [°C]	IC50 (PC-3 cells) [nM]	tubulin polymerisation score (tubulin)	IC50 (PC-3 cells; Alamar Blue) [nM]
CCc1cc2ccc([C@@](C)(C#N)Cc3ccccc3)cc2[nH]c1=O (single isomer, unassigned) [Compound 46]	177	398	2	
CCc1cc2ccc([C@](C)(C#N)Cc3nc(OC)cc(OC)n3)cc2[nH]c1=O (single isomer, unassigned) [Compound 52]	178		1 (a compound showing 0 to 50% inhibition at 20 μM is reported as score 1)	7940
CCc1cc2ccc([C@@](C)(C#N)Cc3nc(OC)cc(OC)n3)cc2[nH]c1=O (single isomer, unassigned) [Compound 53]	163		3 (a compound showing more than 50% inhibition at 5 μM is reported as score 3)	39.8
CCc1cc2ccc(C(C)(C#N)Cc3nnsc3Cl)cc2[nH]c1=O (stereo not drawn) [Compound 42]	220	316	1 (a compound showing 0 to 50% inhibition at 20 μM is reported as score 1)	
